In experiment [1] the target is T1, PDK1 (Homo sapiens, UniProt O15530).
T1 construct: purchased Invitrogen Corporation, Life Technologies
T1 sequence (O15530 1-556): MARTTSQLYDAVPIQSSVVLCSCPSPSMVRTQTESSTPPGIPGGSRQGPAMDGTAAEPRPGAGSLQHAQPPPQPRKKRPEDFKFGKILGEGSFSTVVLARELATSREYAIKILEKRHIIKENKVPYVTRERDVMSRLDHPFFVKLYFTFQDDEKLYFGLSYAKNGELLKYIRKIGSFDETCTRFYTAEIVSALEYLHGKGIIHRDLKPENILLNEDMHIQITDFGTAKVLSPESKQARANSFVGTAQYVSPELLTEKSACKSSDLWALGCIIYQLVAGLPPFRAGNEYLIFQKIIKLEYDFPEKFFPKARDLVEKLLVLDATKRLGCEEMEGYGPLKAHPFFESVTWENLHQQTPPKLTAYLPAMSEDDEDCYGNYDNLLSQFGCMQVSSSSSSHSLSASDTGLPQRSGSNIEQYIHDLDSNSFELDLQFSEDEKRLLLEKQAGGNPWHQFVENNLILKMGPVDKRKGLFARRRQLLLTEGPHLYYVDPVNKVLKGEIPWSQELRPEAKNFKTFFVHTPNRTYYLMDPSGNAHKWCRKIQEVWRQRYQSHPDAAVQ
Nature of the experiment: FRET-based Z'-LYTE kinase assay against PDK1. It counts as biochemical. On the procedure: (§1) The compounds of Formula (I) were tested in the biological test named Kinase-specific Z′-LYTE® assay (Invitrogen Corporation, Life Technologies).

The target of experiment [2] is T2, AurA (Homo sapiens, UniProt O14965).
T2 construct: purchased Invitrogen Corporation, Life Technologies
T2 sequence (O14965 1-403): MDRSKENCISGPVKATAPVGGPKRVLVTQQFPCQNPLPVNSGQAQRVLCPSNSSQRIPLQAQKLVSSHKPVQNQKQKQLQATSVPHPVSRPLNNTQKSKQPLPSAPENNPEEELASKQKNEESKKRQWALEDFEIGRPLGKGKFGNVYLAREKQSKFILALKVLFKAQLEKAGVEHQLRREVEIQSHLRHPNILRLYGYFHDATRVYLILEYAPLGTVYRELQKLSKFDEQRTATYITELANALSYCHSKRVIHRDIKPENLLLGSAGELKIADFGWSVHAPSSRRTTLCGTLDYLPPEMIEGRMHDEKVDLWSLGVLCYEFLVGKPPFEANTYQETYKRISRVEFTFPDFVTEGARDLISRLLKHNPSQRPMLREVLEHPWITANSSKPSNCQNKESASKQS
The experiment in a line: FRET-based Z'-LYTE kinase assay against AurA. It counts as biochemical. As to conditions: for IC50 / inhibition at 10 µM: Z'-LYTE assay; for inhibition at 10 µM: 10μM compound. On the procedure:
as §1

Experiment [3] concerns U87MG cells. The experiment in a line: U87MG cell proliferation, MTS assay. It counts as cell-based. As to conditions: 72 h, 1 nM-10 μM. The protocol:
FIG. 1 illustrates the effects of SA16 on U87MG cell proliferation of example 3 (a). U87MG cells were treated in complete medium with different concentrations of SA16 (1 nM-100 μM) for 72 h. At the end of treatment, cell proliferation was measured using the MTS assay. The data are expressed as a percentage with respect to that of untreated cells (control), which was set to 100%, and are the mean values±SEM of three independent experiments, each performed in duplicate. The significance of the differences was determined with a one-way ANOVA with Bonferroni post-test: * p<0.05, ** p<0.01, *** p<0.001 vs. control cells;
FIG. 2 illustrates the combined inhibition of PDK1 and Aurora A on U87MG cell proliferation of example 3a. U87MG cells were treated in complete medium with different concentrations of MP7, in the presence or absence of Alisertib, for 72 h. At the end of treatment, cell proliferation was measured using the MTS assay. The data are expressed as a percentage with respect to that of untreated cells (control), which was set to 100%, and are the mean values±SEM of three independent experiments, each performed in duplicate. The significance of the differences was determined with a one-way ANOVA with Bonferroni post-test: * p<0.05, *** p<0.001 vs. control cells; ## p<0.01, ### p<0.001 vs. cells treated with MP7 alone; §§ p<0.01, § § § p<0.001 vs. cells treated with Alisertib alone;
To examine the effects of SA16 on U87MG cell growth/survival, U87MG cells were incubated with different concentrations of the compound SA16 (1 nM-10 μM) for 72 h.
In parallel experiments, U87MG proliferation was assessed in the presence of a well-known PDK1 inhibitor MP7, alone or in combination with the Aurora A inhibitor, Alisertib.
For orientation: Formazan colour is commonly taken as a measure of viable cells.

Experiment [4] has as its system cancer stem cell (CSC) neurospheres obtained from U87MG cells. Nature of the experiment: CSC (GBM stem cell) proliferation, MTS assay. The following applies: seven days of treatment. It counts as cell-based. The protocol: FIG. 3 illustrates the effects of SA16 on CSC proliferation of example 3b. CSCs were treated in complete neurosphere medium with different concentrations of SA16 (1 nM-100 μM) for seven days. At the end of treatment, cell proliferation was measured using the MTS assay. The data are expressed as a percentage with respect to that of untreated cells (control), which was set to 100%, and are the mean values±SEM of three independent experiments, each performed in duplicate. IC50 value after seven days of treatment were calculated from sigmoid dose-response curve;
FIG. 4 illustrates combined inhibition of PDK1 and Aurora A on CSCs proliferation of example 3b. CSCs were treated in complete medium with different concentrations of MP7, in the presence or absence of Alisertib, for seven days. At the end of treatment, cell proliferation was measured using the MTS assay.
The data are expressed as a percentage with respect to that of untreated cells (control), which was set to 100%, and are the mean values±SEM of three independent experiments, each performed in duplicate. The significance of the differences was determined with a one-way ANOVA with Bonferroni post-test: * p<0.05, *** p<0.001 vs. control cells; ## p<0.01, ### p<0.001 vs. cells treated with MP7 alone; §§ p<0.01, § § § p<0.001 vs. cells treated with Alisertib alone;
The inventors also examined the effects of SA16 compound on cancer stem cell (CSC) neurospheres obtained from U87MG cells.

As to `Cc1ccc(C(=O)N[C@@H](C(=O)Nc2ccc3c(c2)/C(=C/c2cnc[nH]2)C(=O)N3)c2ccccc2)c(=O)n1Cc1ccc(F)c(F)c1` [Compound V18, (R,Z)—N-(2-((3-((1H-imidazol-5-yl)methylene)-2-oxoindolin-5-yl)amino)-2-oxo-1-phenylethyl)-1-(3,4-difluorobenzyl)-6-methyl-2-oxo-1,2-dihydropyridine-3-carboxamide], the IC50 amounted to 148 nM in experiment [1] (Z'-LYTE assay) and 69.8 nM in experiment [2].

As to `Cc1c(Br)cc(C(=O)N[C@@H](C(=O)Nc2ccc3c(c2)/C(=C/c2cnc[nH]2)C(=O)N3)c2ccccc2)c(=O)n1Cc1ccc(F)c(F)c1` [Compound V118, (R,Z)—N-(2-((3-((1H-imidazol-5-yl)methylene)-2-oxoindolin-5-yl)amino)-2-oxo-1-phenylethyl)-5-bromo-1-(3,4-difluorobenzyl)-6-methyl-2-oxo-1,2-dihydropyridine-3-carboxamide], the IC50 in experiment [1] (Z'-LYTE assay) stood at 475 nM; in experiment [2] it was 118 nM.

What is called inhibition is the relative decrease from the control value, in per cent. High values mean strong suppression, low ones little suppression. In the case of `Cc1c(Br)cc(C(=O)NCC(=O)Nc2ccc3c(c2)/C(=C/c2cnc[nH]2)C(=O)N3)c(=O)n1Cc1ccc(F)c(F)c1` [Compound V123, (Z)—N-(2-((3-((1H-imidazol-5-yl)methylene)-2-oxoindolin-5-yl)amino)-2-oxoethyl)-5-bromo-1-(3,4-difluorobenzyl)-6-methyl-2-oxo-1,2-dihydropyridine-3-carboxamide], the IC50 in experiment [1] (Z'-LYTE assay) was determined as 134 nM. Further, the inhibition at 10 µM in experiment [2] was 52%.

Consider `O=C(CCNC(=O)c1cccn(Cc2ccc(F)c(F)c2)c1=O)Nc1ccc2c(c1)/C(=C/c1cnc[nH]1)C(=O)N2` [DD21, (Z)—N-(3-((3-((1H-imidazol-5-yl)methylene)-2-oxoindolin-5-yl)amino)-3-oxopropyl)-1-(3,4-difluorobenzyl)-2-oxo-1,2-dihydropyridine-3-carboxamide], for which the IC50 amounted to 103 nM in experiment [1] (Z'-LYTE assay) and 2470 nM in experiment [2].

As for `O=C(CCCNC(=O)c1cccn(Cc2ccc(F)c(F)c2)c1=O)Nc1ccc2c(c1)/C(=C/c1cnc[nH]1)C(=O)N2` [DF8, (Z)—N-(4-((3-((1H-imidazol-5-yl)methylene)-2-oxoindolin-5-yl)amino)-4-oxobutyl)-1-(3,4-difluorobenzyl)-2-oxo-1,2-dihydropyridine-3-carboxamide], the “inhibition of PDK1 kinase (in words)” value in experiment [1] was “best effects”. The IC50 in experiment [1] (Z'-LYTE assay) came to 245 nM. In experiment [2], the “inhibition of AurA kinase (in words)” value was “best effects” and the IC50 was determined as 611 nM.

As to `O=C(CNC(=O)c1cccn(Cc2ccc(F)c(F)c2)c1=O)Nc1ccc2c(c1)/C(=C/c1cnc[nH]1)C(=O)N2` [IB35, (Z)—N-(2-((3-((1H-imidazol-5-yl)methylene)-2-oxoindolin-5-yl)amino)-2-oxoethyl)-1-(3,4-difluorobenzyl)-2-oxo-1,2-dihydro pyridine-3-carboxamide], in experiment [2], the IC50 came out at 289 nM.

Regarding `O=C1Nc2ccc(NC(=O)[C@H](NC(=O)c3cccn(Cc4ccc(F)c(F)c4)c3=O)c3ccccc3)cc2/C1=C/c1cnc[nH]1` [SA16, (Z)—(R)—N-(2-((3-((1H-imidazol-5-yl)methylene)-2-oxoindolin-5-yl)amino)-2-oxo-1-phenylethyl)-1-(3,4-difluorobenzyl)-2-oxo-1,2-dihydropyridine-3-carboxamide], the IC50 was 35 nM in experiment [2] and 8.33 ± 0.78 nM in experiment [4] (Homo sapiens, U-87 MG, 168 h, read-out: IC50 of inhibition of GSC proliferation). Also, in experiment [3], the “maximal percentage of inhibition of U87MG cell proliferation” value stood at 49.4±2%. The “maximal percentage of inhibition of GSC proliferation” value in experiment [4] is 80.0±2.0%.

Consider `Cc1ccc(C(=O)NCC(=O)Nc2ccc3c(c2)/C(=C/c2cnc[nH]2)C(=O)N3)c(=O)n1Cc1ccc(F)c(F)c1` [SST200, (Z)—N-(2-((3-((1H-imidazol-5-yl)methylene)-2-oxoindolin-5-yl)amino)-2-oxoethyl)-1-(3,4-difluorobenzyl)-6-methyl-2-oxo-1,2-dihydropyridine-3-carboxamide], for which the IC50 was 103 nM in experiment [1] (Z'-LYTE assay) and 193 nM in experiment [2].

On to `O=C(CNC(=O)c1cc2cccnc2n(Cc2ccc(F)c(F)c2)c1=O)Nc1ccc2c(c1)/C(=C/c1cnc[nH]1)C(=O)N2` [SST201, (Z)—N-(2-((3-((1H-imidazol-5-yl)methylene)-2-oxoindolin-5-yl)amino)-2-oxoethyl)-1-(3,4-difluorobenzyl)-2-oxo-1,2-dihydro-1,8-naphthyridine-3-carboxamide], for which the inhibition at 10 µM in experiment [1] (10μM compound, Z'-LYTE assay) turned out to be 35%; in experiment [2] it was 43%.

Values taken from patent US20190160049A1, “2-OXO-1,2-DIHYDROPYRIDINE-3-CARBOXAMIDE COMPOUNDS AND THEIR USE AS DUAL INHIBITORS OF PDK1/AURA” (INTERNATIONAL SOCIETY FOR DRUG DEVELOPMENT S.R.L., priority 2016, published 2019).
